For assay [1], the target named is T1, angiotensin converting enzyme (Rattus norvegicus, UniProt P47820).
T1 construct: from tissue; host or cells: whole animal: male, normotensive rats
T1 sequence (P47820 36-1313): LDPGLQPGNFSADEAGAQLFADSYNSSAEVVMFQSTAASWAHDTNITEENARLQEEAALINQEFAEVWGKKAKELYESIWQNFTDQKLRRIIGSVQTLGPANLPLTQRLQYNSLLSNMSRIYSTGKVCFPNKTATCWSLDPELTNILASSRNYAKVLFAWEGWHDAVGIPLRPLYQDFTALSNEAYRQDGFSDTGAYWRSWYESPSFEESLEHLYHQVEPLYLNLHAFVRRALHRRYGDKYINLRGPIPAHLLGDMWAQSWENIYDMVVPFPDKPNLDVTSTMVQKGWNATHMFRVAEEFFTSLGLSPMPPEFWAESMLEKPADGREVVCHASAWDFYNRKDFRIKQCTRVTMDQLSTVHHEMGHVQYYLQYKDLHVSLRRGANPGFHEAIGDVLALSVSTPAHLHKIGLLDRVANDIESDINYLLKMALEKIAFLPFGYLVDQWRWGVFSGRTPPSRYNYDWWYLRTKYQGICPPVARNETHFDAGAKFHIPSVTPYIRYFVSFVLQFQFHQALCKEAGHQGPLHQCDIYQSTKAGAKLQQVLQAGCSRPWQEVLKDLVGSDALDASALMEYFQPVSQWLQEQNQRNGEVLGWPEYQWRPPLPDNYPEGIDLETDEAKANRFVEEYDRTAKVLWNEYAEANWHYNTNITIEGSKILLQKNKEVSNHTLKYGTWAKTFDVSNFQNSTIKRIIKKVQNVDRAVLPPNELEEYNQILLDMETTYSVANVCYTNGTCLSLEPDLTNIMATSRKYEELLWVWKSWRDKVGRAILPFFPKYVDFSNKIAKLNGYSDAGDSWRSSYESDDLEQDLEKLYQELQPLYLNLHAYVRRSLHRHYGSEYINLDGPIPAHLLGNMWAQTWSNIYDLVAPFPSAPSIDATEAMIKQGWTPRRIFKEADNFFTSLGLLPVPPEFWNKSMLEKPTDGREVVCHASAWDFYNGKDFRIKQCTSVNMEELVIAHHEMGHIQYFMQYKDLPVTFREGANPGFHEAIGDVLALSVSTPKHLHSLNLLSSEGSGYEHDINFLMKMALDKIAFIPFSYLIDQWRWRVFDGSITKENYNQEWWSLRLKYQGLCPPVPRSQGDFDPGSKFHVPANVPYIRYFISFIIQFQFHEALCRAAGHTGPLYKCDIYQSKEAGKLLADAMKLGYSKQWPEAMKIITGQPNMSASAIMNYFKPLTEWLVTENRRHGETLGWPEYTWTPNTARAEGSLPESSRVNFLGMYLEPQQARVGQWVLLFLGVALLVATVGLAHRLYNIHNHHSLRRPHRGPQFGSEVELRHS
In words: Inhibition of angiotensin I induced pressor response in normotensive rats. The class given is in vivo. As to conditions: 10 mg/Kg i.v., male normotensive anesthetized rats, 300 ng/kg angiotensin I i.v. challenge. The procedure:
The in vivo test for intravenously administered compounds is performed with male, normotensive rats, which are anesthetized with sodium metofan. A femoral artery and femoral vein are cannulated respectively for direct blood pressure measurement on i.v. administration of angiotensin I and i.v. or p.o. administration of a compound of this invention. After the basal blood pressure is stabilized, pressor responses to 3 challenges of 300 ng/kg angiotensin I i.v., at 15 minute intervals, are obtained. Such pressure responses are usually again obtained at 15, 30, 60 and 90 minutes, and then every hour up to 6 hours after i.v. or p.o. administration of the compound to be tested, and compared with the initial responses. Any observed decrease of said pressor response is an indication of Angiotensin I converting enzyme inhibition.

Assay [2] concerns the target T2, neutral endopeptidase (NEP, EC 3.4.24.11) (Rattus norvegicus, UniProt P07861).
T2 construct: 4.2 μg of protein (rat kidney cortex membranes prepared by method of Maeda et at, 1983); from tissue; host or cells: rat kidney cortex membranes
T2 sequence (P07861 1-750): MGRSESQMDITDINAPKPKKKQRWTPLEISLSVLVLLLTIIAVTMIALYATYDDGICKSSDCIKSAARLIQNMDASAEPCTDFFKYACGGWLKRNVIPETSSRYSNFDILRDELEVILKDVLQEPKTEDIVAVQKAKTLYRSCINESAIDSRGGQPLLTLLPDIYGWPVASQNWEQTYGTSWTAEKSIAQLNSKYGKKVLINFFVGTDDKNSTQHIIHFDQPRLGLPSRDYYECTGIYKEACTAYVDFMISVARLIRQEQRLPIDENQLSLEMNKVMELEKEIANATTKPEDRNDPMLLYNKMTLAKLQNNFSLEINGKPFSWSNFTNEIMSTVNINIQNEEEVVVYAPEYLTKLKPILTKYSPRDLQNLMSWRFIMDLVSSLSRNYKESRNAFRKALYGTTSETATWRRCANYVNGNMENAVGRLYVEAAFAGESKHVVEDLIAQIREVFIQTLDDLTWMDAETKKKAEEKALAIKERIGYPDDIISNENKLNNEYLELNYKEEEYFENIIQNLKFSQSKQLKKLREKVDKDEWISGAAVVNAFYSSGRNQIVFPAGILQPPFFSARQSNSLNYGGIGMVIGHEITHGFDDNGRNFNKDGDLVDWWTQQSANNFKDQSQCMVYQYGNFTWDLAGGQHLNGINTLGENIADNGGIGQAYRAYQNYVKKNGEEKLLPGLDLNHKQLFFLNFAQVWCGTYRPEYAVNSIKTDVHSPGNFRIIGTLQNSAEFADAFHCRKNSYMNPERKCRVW
In words: GAAP in vitro assay of neutral endopeptidase (rat kidney cortex membranes). As to conditions: substrate glutaryl-Ala-Ala-Phe-2-naphthylamide 500 μM, pH 7.4 at 25° C. Format: biochemical. The procedure:
In vitro testing is most appropriate for the free carboxylic acids of the invention. The test compound is dissolved in dimethyl sulfoxide, ethanol, or 0.25M sodium bicarbonate solution, and the solution is diluted with buffer to the desired concentration.
The in vitro inhibition of neutral endopeptidase (NEP, EC 3.4.24.11) can be determined as follows:
Neutral endopeptidase 3.4.24.11 activity is determined by the hydrolysis of the substrate glutaryl-Ala-Ala-Phe-2-naphthylamide (GAAP) using a modified procedure of Orlowski and Wilk (1981). The incubation mixture (total volume 125 μl) contains 4.2 μg of protein (rat kidney cortex membranes prepared by method of Maeda et at, 1983), 50 mM tris buffer, pH 7.4 at 25° C., 500 μM substrate (final concentration), and leucine aminopeptidase M (2.5 μg). The mixture is incubated for 10 minutes at 25° C. and 100 μl of fast garnet (250 μg fast garnet/ml of 10% Tween 20 in 1M sodium acetate, pH 4.2) is added. Enzyme activity is measured spectrophotometrically at 540 nm. One unit of NEP 24.11 activity is defined as 1 nmol of 2-naphthylamine released per minute at 25° C. at pH 7.4. IC50 values are determined, i.e. the concentration of test compound required for 50% inhibition of the release of 2-naphthylamine.

By IC50 is commonly meant the point on the concentration scale where inhibition reaches its midpoint. Take `CC(C)[C@H](S)C(=O)NC(C)(C)C(=O)N[C@@H](Cc1ccc(O)cc1)C(=O)O` [Example 2, N-[2-(2(S)-mercapto-3-methyl-1-oxobutylamino)-2-methyl-1-oxopropyl]-L-tyrosine]: in assay [1], the “duration of inhibition of the Angiotensin I induced pressor response” value was 6 h. In addition, in assay [2], the concentration for half-maximal inhibition (IC50) is roughly 9.2 nM.

For the origin of these results see patent US5508266A, “Gem-disubstituted amino acid derivatives” (Ciba-Geigy Corporation, priority 1994, dated 1996).
